This note sets out measurements from patent publication US10570099B2, “Salts of an epidermal growth factor receptor kinase inhibitor” (Celgene CAR LLC, priority 2012, dated 2020).

A short description of data set [1]: 1 week stability of primary screen salts at 40° C./75% RH and 80° C. (open vials, XRPD). The class given is physicochemical. Here is the method: (open vials). TGA was carried out after the stability studies for samples containing sufficient material.
The nature of data set [2]: Solvent solubility screen of amorphous hydrobromide salt. The class given is physicochemical. The procedure: Approximately 10 mg of amorphous hydrobromide salt was placed in each of 24 vials and 5 volume aliquots of the appropriate solvent system was added to the vial. Between each addition, the mixture was checked for dissolution. This procedure was continued until dissolution was observed or until 100 volumes of solvent had been added.

Take `C=CC(=O)Nc1cccc(Nc2nc(Nc3ccc(N4CCN(C(C)=O)CC4)cc3OC)ncc2C(F)(F)F)c1.O=S(=O)(O)c1cccc2c(S(=O)(=O)O)cccc12`: in data set [1], the “Stability 40° C./75% RH (open conditions)” value (“Stability 40° C./75% RH” for short) is reported as “No form change,” and the “Stability 80° C. (open conditions)” value is given as “Possible form change,”.

As to `C=CC(=O)Nc1cccc(Nc2nc(Nc3ccc(N4CCN(C(C)=O)CC4)cc3OC)ncc2C(F)(F)F)c1.O=S(=O)(O)c1ccc2ccccc2c1`, in data set [1], the “Stability 40° C./75% RH” value was “No form change, small” and the “Stability 80° C. (open conditions)” value is on record as “No form change,”.

`C=CC(=O)Nc1cccc(Nc2nc(Nc3ccc(N4CCN(C(C)=O)CC4)cc3OC)ncc2C(F)(F)F)c1.O=S(=O)(O)c1ccccc1` [Besylate (1 equiv.) Form II]: in data set [1], the “Stability 40° C./75% RH” value is listed as “No form change, some” and the “Stability 80° C. (open conditions)” value is reported as “No form change, some”.

Consider `C=CC(=O)Nc1cccc(Nc2nc(Nc3ccc(N4CCN(C(C)=O)CC4)cc3OC)ncc2C(F)(F)F)c1.O=S(=O)(O)c1ccccc1` [Besylate (1 equiv.) Form I], for which, in data set [1], the “Stability 40° C./75% RH” value is recorded as “No form change,” and the “Stability 80° C. (open conditions)” value is given as “No form change,”.

Consider `C=CC(=O)Nc1cccc(Nc2nc(Nc3ccc(N4CCN(C(C)=O)CC4)cc3OC)ncc2C(F)(F)F)c1.O=S(=O)(O)c1ccccc1.O=S(=O)(O)c1ccccc1` [Besylate (2 equiv.) Form II], for which, in data set [1], the “Stability 40° C./75% RH” value is reported as “No form change,” and the “Stability 80° C. (open conditions)” value was “No form change,”.

In the case of `C=CC(=O)Nc1cccc(Nc2nc(Nc3ccc(N4CCN(C(C)=O)CC4)cc3OC)ncc2C(F)(F)F)c1.CC1(C)C2CCC1(CS(=O)(=O)O)C(=O)C2` [Camphor-10-sulfonic acid (1 eq.) Form II], the “Stability 80° C. (open conditions)” value in data set [1] is given as “Converted to Form I,”.

Regarding `C=CC(=O)Nc1cccc(Nc2nc(Nc3ccc(N4CCN(C(C)=O)CC4)cc3OC)ncc2C(F)(F)F)c1.CC1(C)C2CCC1(CS(=O)(=O)O)C(=O)C2` [Camphor-10-sulfonic acid (1 eq.) Form I], in data set [1], the “Stability 40° C./75% RH” value is on record as “No form change, slight” and the “Stability 80° C. (open conditions)” value is “No form change,”.

As for `C=CC(=O)Nc1cccc(Nc2nc(Nc3ccc(N4CCN(C(C)=O)CC4)cc3OC)ncc2C(F)(F)F)c1.CC1(C)C2CCC1(CS(=O)(=O)O)C(=O)C2.CC1(C)C2CCC1(CS(=O)(=O)O)C(=O)C2` [Camphor-10-sulfonic acid (2 eq.) Form I], in data set [1], the “Stability 40° C./75% RH” value is listed as “Amorphous” and the “Stability 80° C. (open conditions)” value is on record as “Amorphous”.

Regarding `Br.Br.C=CC(=O)Nc1cccc(Nc2nc(Nc3ccc(N4CCN(C(C)=O)CC4)cc3OC)ncc2C(F)(F)F)c1` [HBr (2 eq.) Form II], in data set [1], the “Stability 40° C./75% RH” value is reported as “Changed to Form I,” and the “Stability 80° C. (open conditions)” value is on record as “Potential new form,”.

With `C=CC(=O)Nc1cccc(Nc2nc(Nc3ccc(N4CCN(C(C)=O)CC4)cc3OC)ncc2C(F)(F)F)c1.Cl` [Hydrochloride (1 equiv.) Form I], in data set [1], the “Stability 40° C./75% RH” value is “No form change,” and the “Stability 80° C. (open conditions)” value was “No form change,”.

With `C=CC(=O)Nc1cccc(Nc2nc(Nc3ccc(N4CCN(C(C)=O)CC4)cc3OC)ncc2C(F)(F)F)c1.Cl.Cl` [Hydrochloride (2 equiv.) Form I], in data set [1], the “Stability 40° C./75% RH” value was “No form change,” and the “Stability 80° C. (open conditions)” value is reported as “No form change,”.

For the compound `C=CC(=O)Nc1cccc(Nc2nc(Nc3ccc(N4CCN(C(C)=O)CC4)cc3OC)ncc2C(F)(F)F)c1.O=C(O)/C=C\C(=O)O` [Maleate Form III], in data set [1], the “Stability 40° C./75% RH” value is reported as “No clear form change” and the “Stability 80° C. (open conditions)” value is given as “No clear form change”.

Regarding `C=CC(=O)Nc1cccc(Nc2nc(Nc3ccc(N4CCN(C(C)=O)CC4)cc3OC)ncc2C(F)(F)F)c1.O=C(O)/C=C\C(=O)O` [Maleate Form II], in data set [1], the “Stability 40° C./75% RH” value is “No form change,” and the “Stability 80° C. (open conditions)” value is given as “No form change,”.

`C=CC(=O)Nc1cccc(Nc2nc(Nc3ccc(N4CCN(C(C)=O)CC4)cc3OC)ncc2C(F)(F)F)c1.O=C(O)/C=C\C(=O)O` [Maleate Form I]: in data set [1], the “Stability 40° C./75% RH” value is given as “No form change,” and the “Stability 80° C. (open conditions)” value is “No form change,”.

Take `C=CC(=O)Nc1cccc(Nc2nc(Nc3ccc(N4CCN(C(C)=O)CC4)cc3OC)ncc2C(F)(F)F)c1.CS(=O)(=O)O.CS(=O)(=O)O` [Mesylate Form I]: in data set [1], the “Stability 40° C./75% RH” value was “Gum formed” and the “Stability 80° C. (open conditions)” value is listed as “Amorphous solid”.

Take `C=CC(=O)Nc1cccc(Nc2nc(Nc3ccc(N4CCN(C(C)=O)CC4)cc3OC)ncc2C(F)(F)F)c1.O=S(=O)(O)c1ccc2ccccc2c1.O=S(=O)(O)c1ccc2ccccc2c1` [Naphthalene-2-sulfonic acid (2 eq.) Form III]: in data set [1], the “Stability 40° C./75% RH” value is given as “Converted to Form II,” and the “Stability 80° C. (open conditions)” value was “Converted to Form II,”.

For `C=CC(=O)Nc1cccc(Nc2nc(Nc3ccc(N4CCN(C(C)=O)CC4)cc3OC)ncc2C(F)(F)F)c1.O=S(=O)(O)c1ccc2ccccc2c1.O=S(=O)(O)c1ccc2ccccc2c1` [Naphthalene-2-sulfonic acid (2 eq.) Form II], the “Stability 40° C./75% RH” value in data set [1] is “No form change,”.

For `C=CC(=O)Nc1cccc(Nc2nc(Nc3ccc(N4CCN(C(C)=O)CC4)cc3OC)ncc2C(F)(F)F)c1.O=S(=O)(O)c1ccc2ccccc2c1.O=S(=O)(O)c1ccc2ccccc2c1` [Naphthalene-2-sulfonic acid (2 eq.) Form IV], in data set [1], the “Stability 40° C./75% RH” value is “Converted to Form II,” and the “Stability 80° C. (open conditions)” value was “Converted to Form II,”.

Take `C=CC(=O)Nc1cccc(Nc2nc(Nc3ccc(N4CCN(C(C)=O)CC4)cc3OC)ncc2C(F)(F)F)c1.O=S(=O)(O)c1ccc2ccccc2c1.O=S(=O)(O)c1ccc2ccccc2c1` [Naphthalene-2-sulfonic acid (2 eq.) Form I]: in data set [1], the “Stability 40° C./75% RH” value was “No form change, poor” and the “Stability 80° C. (open conditions)” value is given as “No form change, poor”.

`C=CC(=O)Nc1cccc(Nc2nc(Nc3ccc(N4CCN(C(C)=O)CC4)cc3OC)ncc2C(F)(F)F)c1.O=C(O)C(=O)O` [Oxalate Form II]: in data set [1], the “Stability 40° C./75% RH” value is given as “No form change,” and the “Stability 80° C. (open conditions)” value is recorded as “Amorphous brown”.

For `C=CC(=O)Nc1cccc(Nc2nc(Nc3ccc(N4CCN(C(C)=O)CC4)cc3OC)ncc2C(F)(F)F)c1.O=C(O)C(=O)O` [Oxalate Form I], in data set [1], the “Stability 40° C./75% RH” value is given as “No form change,” and the “Stability 80° C. (open conditions)” value is “No form change,”.

For `C=CC(=O)Nc1cccc(Nc2nc(Nc3ccc(N4CCN(C(C)=O)CC4)cc3OC)ncc2C(F)(F)F)c1.Cc1ccc(S(=O)(=O)O)cc1` [Tosylate (1 equiv.) Form II], in data set [1], the “Stability 40° C./75% RH” value is given as “Gum formed” and the “Stability 80° C. (open conditions)” value is “Possible form change,”.

On to `C=CC(=O)Nc1cccc(Nc2nc(Nc3ccc(N4CCN(C(C)=O)CC4)cc3OC)ncc2C(F)(F)F)c1.Cc1ccc(S(=O)(=O)O)cc1` [Tosylate (1 equiv.) Form I], for which, in data set [1], the “Stability 40° C./75% RH” value was “No form change,” and the “Stability 80° C. (open conditions)” value was “No form change,”.

On to `C=CC(=O)Nc1cccc(Nc2nc(Nc3ccc(N4CCN(C(C)=O)CC4)cc3OC)ncc2C(F)(F)F)c1.Cc1ccc(S(=O)(=O)O)cc1.Cc1ccc(S(=O)(=O)O)cc1` [Tosylate (2 equiv.) Form II], for which, in data set [1], the “Stability 40° C./75% RH” value was “Gum formed” and the “Stability 80° C. (open conditions)” value is reported as “Possible form change,”.

Regarding `C=CC(=O)Nc1cccc(Nc2nc(Nc3ccc(N4CCN(C(C)=O)CC4)cc3OC)ncc2C(F)(F)F)c1.Cc1ccc(S(=O)(=O)O)cc1.Cc1ccc(S(=O)(=O)O)cc1` [Tosylate (2 equiv.) Form I], in data set [1], the “Stability 40° C./75% RH” value is listed as “No form change,” and the “Stability 80° C. (open conditions)” value was “No form change,”.

With `Br.C=CC(=O)Nc1cccc(Nc2nc(Nc3ccc(N4CCN(C(C)=O)CC4)cc3OC)ncc2C(F)(F)F)c1` [amorphous hydrobromide salt], the “Approximate Solubility” value in data set [2] (1,4-Dioxane), in data set [2] (1-Butanol), in data set [2] (2-Propanol), in data set [2] (3-Methyl-1-butanol), in data set [2] (Acetone) and in data set [2] (Acetone:Water (10%)) was below 10000 µg/mL each time. The “Approximate Solubility” value in data set [2] (Acetonitrile) was below 10000 µg/mL; in data set [2] (Cyclohexane), below 10000 µg/mL; in data set [2] (Dichloromethane) it was below 10000 µg/mL; in data set [2] (Diisopropyl ether), below 10000 µg/mL; in data set [2] (Dimethylformamide) it was “ca. 67 mg/mL”; in data set [2] (Dimethylsulfoxide), “ca. 50 mg/mL”. The “Approximate Solubility” value in data set [2] (Ethanol), in data set [2] (Ethyl acetate), in data set [2] (Heptane), in data set [2] (Isopropyl acetate), in data set [2] (Methyl isobutyl ketone) and in data set [2] (Methylethyl ketone) was below 10000 µg/mL throughout. The “Approximate Solubility” value is “ca. 20 mg/mL” in data set [2] (N-Methyl-2-pyrrolidone); below 10000 µg/mL in data set [2] (Nitromethane); below 10000 µg/mL in data set [2] (Tetrahydrofuran); below 10000 µg/mL in data set [2] (Toluene); below 10000 µg/mL in data set [2] (Water); below 10000 µg/mL in data set [2] (tert-Butylmethyl ether).
